Measurements as given in the NIST ThermoML archive (doi:10.1021/acs.jced.5b00971).

Settings: 101.33 kPa, Liquid; for thermal conductivity: Hot wire method; for viscosity: Capillary tube (Ostwald / Ubbelohde) method; for mass density: Pycnometric method

CCCCCCCCCC(=O)O [decanoic acid]
Settings | mass density [kg/m3] | thermal conductivity [W/m/K] | viscosity [mPa·s]
308 K | – | 0.154 | –
322.1 K | 878 | – | 4.75
327.4 K | – | 0.15 | –
332.1 K | 871 | – | 3.8
348.8 K | – | 0.146 | –
352.1 K | 855.3 | – | 2.55
368.3 K | 843.1 | – | 1.94
373.9 K | – | 0.14 | –
388.3 K | 827.3 | – | 1.45
398.3 K | – | 0.135 | –
408.2 K | 812.2 | – | 1.1
421.9 K | – | 0.13 | –
427.2 K | 797.2 | – | 0.88
428.2 K | 796.4 | – | 0.87
442.2 K | 784.9 | – | 0.75
447.3 K | – | 0.125 | –
457.2 K | 772.9 | – | 0.64
472.2 K | 761.9 | – | 0.56
473.4 K | – | 0.119 | –

CCCCCCCCCCCC(=O)O [dodecanoic acid]
Settings | mass density [kg/m3] | thermal conductivity [W/m/K] | viscosity [mPa·s]
322.1 K | 872.4 | – | 7.21
324.6 K | – | 0.156 | –
332.1 K | 864.6 | – | 5.62
348.7 K | – | 0.151 | –
352.1 K | 849.9 | – | 3.7
368.2 K | 838.9 | – | 2.69
373.8 K | – | 0.145 | –
388.4 K | 824.1 | – | 1.97
398.4 K | – | 0.14 | –
408.1 K | 809.3 | – | 1.47
422 K | – | 0.134 | –
428.1 K | 794.4 | – | 1.11
442.2 K | 783.5 | – | 0.95
447.5 K | – | 0.129 | –
457.2 K | 770.2 | – | 0.8
467.2 K | 762 | – | 0.72
472.7 K | – | 0.123 | –

CCCCCCCCC(=O)O [nonanoic acid]
Settings | mass density [kg/m3] | thermal conductivity [W/m/K] | viscosity [mPa·s]
290.3 K | 906 | – | –
292.3 K | – | – | 8.2
296.3 K | – | 0.15 | –
308 K | 893.8 | – | 5.25
322.6 K | – | 0.144 | –
323.1 K | 881.9 | – | 3.66
338.1 K | 870.1 | – | 2.7
352.9 K | – | 0.139 | –
353.1 K | 858.4 | – | 2.07
368 K | 846.7 | – | 1.63
381.3 K | – | 0.133 | –
383.1 K | 834.1 | – | –
383.3 K | – | – | 1.31
398.1 K | 822.3 | – | 1.08
412.2 K | – | 0.126 | –
413 K | 810.3 | – | 0.9
427.9 K | 798 | – | 0.76
441.4 K | – | 0.121 | –
471.6 K | – | 0.115 | –

CCCCCCC(=O)O [heptanoic acid]
Settings | mass density [kg/m3] | thermal conductivity [W/m/K] | viscosity [mPa·s]
290.3 K | 920.6 | – | 4.63
296 K | – | 0.144 | –
308 K | 905.7 | – | 3.06
314.4 K | – | 0.14 | –
323.1 K | 893 | – | 2.3
332.4 K | – | 0.137 | –
338.1 K | 880.4 | – | 1.74
352.6 K | – | 0.133 | –
353.1 K | 867.8 | – | 1.39
367.1 K | 855.4 | – | 1.13
372.2 K | – | 0.13 | –
382 K | – | 0.127 | –
383.2 K | 842.3 | – | 0.94
391.9 K | – | 0.124 | –
397.9 K | 829.4 | – | 0.79
412.4 K | – | 0.121 | –
412.9 K | 816.6 | – | 0.68
427.7 K | 803.4 | – | 0.59
441.7 K | – | 0.116 | –
471.4 K | – | 0.11 | –
